Assay results reported in patent US9457030B2, “Compositions and methods for the treatment of juvenile neuronal ceroid lipofuscinosis and related disorders” (BOARD OF REGENTS OF THE UNIVERSITY OF NEBRASKA, priority 2012, dated 2016).
Entries after “also recorded” stand apart in the source; their conditions may differ.

Key:
[1] = test system: astrocytes; conditions: cited from earlier work
[2] = test system: CLN3^Δex7/8 microglia; test: IL-1β and TNF-α production by primary microglia (ELISA); type: cell-based, mouse; conditions: 1 hour pre-treatment, then 20 μM ceramide+neuron lysates for 24 hours, CLN3 mutant microglia
Experimental: (§1) FIG. 21. PDE-4 inhibitors attenuate IL-1β and TNF-α production in CLN3^Δex7/8 microglia. Primary microglia were isolated from the brains of CLN3 WT or CLN3 mutant mice, whereupon cells were pre-treated with various concentrations of the phosphodiesterase-4 inhibitor propentofylline (PPF) for 1 hour followed by a combination of molecules known to be elevated in the JNCL brain (20 μM ceramide+neuron lysates) for 24 hours. Conditioned medium was collected at 24 hours post-treatment and IL-1β and TNF-α expression was determined by ELISA. **, p<0.01 for WT versus CLN3 mutant microglia; #, p<0.05; ##, p<0.01; ###, p<0.001 for CLN3 mutant microglia treated with PPF versus vehicle control.
as §1, with “22.” for “21.”, “rolipram (Rol)” for “propentofylline (PPF)”, “p<0.05;” for “p<0.05; ##, p<0.01;”, “Rol” for “PPF”
as §1, with “24.” for “21.”, “attenuate” for “attenuate IL-1β and”, “roflumilast (Rof)” for “propentofylline (PPF)”, “and” for “and IL-1β and”, “microglia.” for “microglia; #, p<0.05; ##, p<0.01; ###, p<0.001 for CLN3 mutant microglia treated with PPF versus vehicle control.”
In these experiments, primary microglia are isolated from the brains of CLN3^Δex7/8 and WT mice^8,25-27. Microglia are exposed to previously optimized concentrations of glutamate (50 μM), ATP (5 mM), ceramide (20-100 μM), neuronal lysate (1:2 or 1:5 dilution), or LPS+ATP as a positive control (100 ng/ml and 5 mM, respectively) for 24 hours, whereupon interleukin-1β (IL-1β) and tumor necrosis factor-α (TNF-α) expression are quantitated by ELISA. These cytokines were selected for analysis because they have been directly implicated in contributing to microglia-induced neuronal cell death^14,28 and also because they intersect with oxidative pathways described herein. […] In addition, CLN3 loss is examined to determine if the loss augments caspase-1 activity, a key inflammasome component that senses oxidative stress and lysosomal damage, resulting in IL-1β cleavage and secretion by microglia^8. Here, CLN3^Δex7/8 and WT microglia are exposed to the same stimuli described above, followed by incubation with the FLICA reagent (Immunochemistry Technologies LLC), a caspase-1 substrate that emits fluorescence when cleaved by the active enzyme^29. […] Indeed, studies support this expectation because caspase-1 activity was elevated in CLN3^Δex7/8 microglia compared to WT cells (FIG. 3).

[3] = test system: CLN3^Δex7/8 microglia; test: Intracellular cAMP in primary microglia; type: cell-based, mouse; conditions: rolipram 10 μM in FIG. 23, 24 hours post-treatment
Experimental: FIG. 23. CLN3^Δex7/8 microglia display reduced intracellular cAMP constitutively, which is enhanced by the PDE-4 inhibitors. Primary microglia were isolated from the brains of CLN3 WT or CLN3 mutant mice, whereupon cells were pre-treated with the phosphodiesterase-4 inhibitor rolipram (Rol; 10 μM) for 1 hour followed by a combination of molecules known to be elevated in the JNCL brain (20 μM ceramide+neuron lysates) for 24 hours. Intracellular cAMP levels were determined at 24 hours post-treatment (*, p<0.05).

Structure (SMILES)	glutamate transporter expression in astrocytes [1]	IL-1β production [2]	TNF-α production [2]	IL-1β production ([2]; listed as PPF)	Intracellular cAMP levels [3]
CCCn1cnc2c1c(=O)n(CCCCC(C)=O)c(=O)n2C [propentofylline]	increase glutamate transporter expression in astrocytes	attenuate	attenuate	significantly reduced IL-1β release	increased
O=C(Nc1c(Cl)cncc1Cl)c1ccc(OC(F)F)c(OCC2CC2)c1 [roflumilast]	–	inhibit	attenuate	–	–
COc1ccc(C2CNC(=O)C2)cc1OC1CCCC1 (stereo not shown) [rolipram]	–	attenuate; also recorded: significantly reduced IL-1β release	attenuate	–	enhanced; also recorded: increased
